Patent US10221138B2, “Biaryl derivatives as GPR120 agonists” (LG CHEM, LTD., priority 2013, dated 2019)

The compounds below were run against T1, hGPR120 (Homo sapiens, UniProt Q5NUL3) (assay: Measurement of activity of GPR120 agonist (cell-based calcium fluorescence assay)). Conditions: CHO-K1 cells expressing Ga16 and hGPR120, Calcium 5 dye fluorescence; activity class; read-out: EC50.
T1 construct: expressed in transfected cells; host or cells: CHO-K1
T1 sequence (Q5NUL3 1-361): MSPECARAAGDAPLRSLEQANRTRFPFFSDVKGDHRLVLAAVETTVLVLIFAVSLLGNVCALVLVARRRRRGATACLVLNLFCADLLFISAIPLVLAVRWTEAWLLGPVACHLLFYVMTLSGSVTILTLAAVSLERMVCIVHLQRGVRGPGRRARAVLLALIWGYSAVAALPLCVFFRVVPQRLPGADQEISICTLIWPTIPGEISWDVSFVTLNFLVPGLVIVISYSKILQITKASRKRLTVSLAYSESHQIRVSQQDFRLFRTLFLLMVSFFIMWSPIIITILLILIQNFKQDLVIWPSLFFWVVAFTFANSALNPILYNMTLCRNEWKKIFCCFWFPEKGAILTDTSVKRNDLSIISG
In short: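 CHO-K1 cells co-expressing Gα16 and hGPR120, plated 18 h, loaded with Calcium 5 dye for 1 h at 37 °C, then given serially diluted agonists (final 0.5% DMSO). Fluorescence increase expressed as relative % of the 1% DMSO-only signal.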

O=C(O)CCCSc1c(F)cc(-c2cccc(OC3CCC3)c2)cc1F [Example 134, 4-(3′-cyclobutoxy-3,5-difluoro-biphenyl-4-ylsulfanyl)-butyric acid] and O=C(O)CCCSc1c(F)cc(-c2cccc(SC3CCCC3)n2)cc1F [Example 159, 4-[4-(6-cyclopentylsulfanyl-pyridin-2-yl)-2,6-difluoro-phenylsulfanyl]-butyric acid] cannot be ordered by EC50: < 200 nM for the first, < 200 nM for the second.

C[C@H](CCC(=O)O)Oc1c(F)cc(-c2cccc(Oc3ccccc3)c2)cc1F [Example 118, (4R)-4-[2,6-difluoro-4-(3-phenoxyphenyl)phenoxy]pentanoic acid] and CC(CCC(=O)O)Oc1c(F)cc(-c2cccc(OC3CCC3)n2)cc1F (stereo not drawn) [Example 29, 4-[4-[6-(cyclobutoxy)-2-pyridyl]-2,6-difluoro-phenoxy]pentanoic acid] cannot be ordered by EC50: < 200 nM for the first, < 200 nM for the second.

First: O=C(O)CCCSc1ccc(-c2cccc(SC3CCCC3)n2)cc1 [Example 133, 4-[4-(6-cyclopentylsulfanyl-pyridin-2-yl)-phenylsulfanyl]-butyric acid]
Second: CC(CCC(=O)O)Sc1ccc(-c2cccnc2OC2CCCC2)cc1 (stereo not drawn) [Example 199, 4-[4-(2-cyclopentyloxy-pyridin-3-yl)-phenylsulfanyl]-pentanoic acid]
The EC50 of the first is higher: 200 to 2000 nM for the first, < 200 nM for the second. The second is the more potent here.

First: CCCOc1ccc(-c2ccc(SCCCC(=O)O)c(F)c2)c(OCCC)c1 [Example 192, 4-(3-fluoro-2′,4′-dipropoxy-biphenyl-4-ylsulfanyl)-butyric acid]
Second: CCCOc1c(F)cc(C)cc1-c1ccc(SCCCC(=O)O)c(F)c1 [Example 191, 4-(3,3′-difluoro-5′-methyl-2′-propoxy-biphenyl-4-ylsulfanyl)-butyric acid]
The EC50 of the first is higher: 2000 to 20000 nM for the first, < 200 nM for the second. The second is the more potent here.

O=C(O)CCCOc1c(F)cc(-c2cccnc2NCC2CC2)cc1F [Example 74, 4-[4-[2-(cyclopropylmethylamino)-3-pyridyl]-2,6-difluoro-phenoxy]butanoic acid] and O=C(O)CCCOc1c(F)cc(-c2cccnc2OCC2CC2)cc1F [Example 46, 4-[4-(2-cyclopropylmethoxy-pyridin-3-yl)-2,6-difluoro-phenoxy]-butyric acid] fall in the same range of EC50: 200 to 2000 nM for the first, 200 to 2000 nM for the second.

First: O=C(O)CCCCCOc1c(F)cc(-c2cccnc2OC2CCCC2)cc1F [Example 262, 6-[4-(2-cyclopentyloxy-pyridin-3-yl)-2,6-difluoro-phenoxy]-hexanoic acid]
Second: O=C(O)CCCOc1c(F)cc(-c2cccnc2SC2CC2)cc1F [Example 205, 4-[4-(2-cyclopropylsulfanyl-pyridin-3-yl)-2,6-difluoro-phenoxy]-butanoic acid]
The EC50 of the first is lower: < 200 nM for the first, 200 to 2000 nM for the second.

O=C(O)CCCCCSc1c(F)cc(-c2cccnc2SC2CCC2)cc1F [Example 278, 6-[4-(2-cyclobutylsulfanyl-pyridin-3-yl)-2,6-difluoro-phenylsulfanyl]-hexanoic acid] and C=CCOc1ncccc1-c1cc(F)c(OCCCC(=O)O)c(F)c1 [Example 269, 4-[4-(2-allyloxy-pyridin-3-yl)-2,6-difluoro-phenoxy]-butyric acid] fall in the same range of EC50: 200 to 2000 nM for the first, 200 to 2000 nM for the second.

CC(C)=Cc1cccc(-c2cc(F)c(OCCCC(=O)O)c(F)c2)n1 [Example 65, 4-{2,6-difluoro-4-[6-(2-methyl-propenyl)-pyridin-2-yl]-phenoxy}-butyric acid] and O=C(O)CCCOc1c(F)cc(-c2cccc(CC3CCCC3)n2)cc1F [Example 100, 4-[4-[6-(cyclopentylmethyl)-2-pyridyl]-2,6-difluoro-phenoxy]butanoic acid] cannot be ordered by EC50: < 200 nM for the first, < 200 nM for the second.

First: CN(C)CCOc1ncccc1-c1cc(F)c(OCCCC(=O)O)c(F)c1 [Example 203, 4-[4-[2-(2-dimethylaminoethyloxy)-3-pyridyl]-2,6-difluoro-phenoxy]butanoic acid]
Second: CC(C)Oc1ncccc1-c1ccc(OCCCCC(=O)O)c(F)c1 [Example 264, 5-[2-fluoro-4-(2-isopropoxy-pyridin-3-yl)-phenoxy]-pentanoic acid]
The EC50 of the first is higher: > 20000 nM for the first, 200 to 2000 nM for the second. The second is the more potent here.
